# Test results taken from patent US8663669B2, “Pesticide treatment of soils or substrates with sulphur compounds” (Arkema France, priority 2002, dated 2014).
# What was measured:
# [1] = test system: termite (Reticulitermes santonensis); experiment: Insecticidal in vitro fumigation test on termites; format: in vivo; conditions: 24 hours of fumigation, mortality counted at the end of 48 hours; 25° C.
# Protocol: Dead wood infested with termites was collected from the soil on ground occupied by a colony. This dead wood serves as breeding medium. The breeding is maintained at a constant 25° C. and a day/night 12:12 alternation.
# The insects are removed in an amount of 2 soldiers per 28 workers.
# The tests are carried out in hermetically closed glass jars having a volume of 3 L and containing the insects.
# The product to be tested is introduced through a hole 2 mm in diameter with the aid of a micropipette and deposited on a filter paper (2×5 cm: Whatman No. 1) suspended at the centre of the jar where it migrates by capillarity and vaporizes rapidly. The hole is hermetically closed again as quickly as possible.
# The jars are placed for 24 hours in an incubator under the same breeding conditions.
# At the end of 24 hours, after a few instants of aeration, a first count is made and then the insects are placed again under breeding conditions for another 24 hours. The counting of the mortality is therefore carried out at the end of 48 hours. […] Each test is carried out on a population of 30 to 50 insects and is accompanied by a control without treatment. Several repeats are carried out with doses close to the LC50.
# [2] = test system: larvae of Meloidogyne arenaria; experiment: Nematicidal in vitro test on second-stage juvenile larvae; format: in vivo; conditions: for Immobility rate after 48 h: 24 h in solution then 24 h in pure water
# Protocol: The second-stage juvenile larvae (the free and infesting stage) are immersed for 24 hours in the test solution and then the number of larvae paralysed are counted before transferring them into pure water for another 24 hours. At the end of the 48 hours which have thus elapsed, the larvae paralysed are again counted and the larvae truly dead are counted the next day.
# (§1) The breeding of the nematodes was carried out on tomato plants. The tests were carried out with, aqueous solutions of DMDS at 0.0001%, 0.1%, 1% and 5% by mass, of DPDS at 1%, 5% and 10% by mass, and of allicin at 0.0003%, 0.0015% and 0.003% by mass, compared with a control consisting of pure water, and repeated five times. The ovicidal activity was also evaluated according to the same modalities, by counting the number of hatchings after 5 to 20 days following exposure to the products.
# [3] = test system: eggs of nematodes (Meloidogyne arenaria); experiment: Ovicidal activity on the eggs of nematodes (number of hatchings); format: in vivo
# Protocol: as §1
# [4] = test system: termite (Reticulitermes santonensis); conditions: value given for comparison, not among the 3 products tested; cited from earlier work
compound,measurement,setting,value
"C=CCSSCC=C [DADS, diallyldisulphide]",LC50 (Probits method),[1],0.011 g × 24 h/m^3
"CCCSSCCC [DPDS, dipropyl disulphide]",Concentration for total efficacy (100% mortality),"[2]; by mass, aqueous solution",greater than or equal to 1%
same,Mortality rate after 72 h,[2]; concentration by mass 1 %,100%
same,Immobility rate after 48 h,[2]; concentration by mass 1 %,100%
same,Immobility rate after 24 h,"[2]; concentration by mass 1 %, aqueous solution",89%
same,Mortality rate after 72 h,[2]; concentration by mass 5 %,100%
same,Immobility rate after 48 h,[2]; concentration by mass 5 %,100%
same,Immobility rate after 24 h,"[2]; concentration by mass 5 %, aqueous solution",93%
same,Mortality rate after 72 h,[2]; concentration by mass 10 %,100%
same,Immobility rate after 48 h,[2]; concentration by mass 10 %,100%
same,Immobility rate after 24 h,"[2]; concentration by mass 10 %, aqueous solution",95%
same,Nematostatic and nematicidal activity,[2]; concentration of greater than or equal to 1%,high nematostatic and nematicidal activity
same,Ovicidal activity,[3]; 1-10 % by mass,very high ovicidal activity
same,Number of hatchings (cumulative),"[3]; concentration by mass 1 %, D5, control 550",117
same,Number of hatchings (cumulative),"[3]; concentration by mass 1 %, D8, control 810",183
same,Number of hatchings (cumulative),"[3]; concentration by mass 1 %, D12, control 990",200
same,Number of hatchings (cumulative),"[3]; concentration by mass 1 %, D15, control 1 030",200
same,Number of hatchings (cumulative),"[3]; concentration by mass 1 %, D19, control 1 030",200
same,Number of hatchings (cumulative),"[3]; concentration by mass 5 %, D5, control 550",67
same,Number of hatchings (cumulative),"[3]; concentration by mass 5 %, D8, control 810",67
same,Number of hatchings (cumulative),"[3]; concentration by mass 5 %, D12, control 990",67
same,Number of hatchings (cumulative),"[3]; concentration by mass 5 %, D15, control 1 030",67
same,Number of hatchings (cumulative),"[3]; concentration by mass 5 %, D19, control 1 030",67
same,Number of hatchings (cumulative),"[3]; concentration by mass 10 %, D5, control 550",33
same,Number of hatchings (cumulative),"[3]; concentration by mass 10 %, D8, control 810",33
same,Number of hatchings (cumulative),"[3]; concentration by mass 10 %, D12, control 990",33
same,Number of hatchings (cumulative),"[3]; concentration by mass 10 %, D15, control 1 030",33
same,Number of hatchings (cumulative),"[3]; concentration by mass 10 %, D19, control 1 030",33
same,Reduction in the number of hatchings,[3]; on the last day of observation,approximately 97%
"C=CCS[S+]([O-])CC=C (centres unmarked) [allicin, diallyl thiosulphinate]",Nematostatic and nematicidal activity,[2]; at much lower concentrations (0.0003-0.003% by mass),high nematostatic and nematicidal activity
same,Mortality rate after 72 h,[2]; concentration by mass 0.0003 %,12%
same,Immobility rate after 48 h,[2]; concentration by mass 0.0003 %,49%
same,Immobility rate after 24 h,"[2]; concentration by mass 0.0003 %, aqueous solution",7%
same,Mortality rate after 72 h,[2]; concentration by mass 0.0015 %,45%
same,Immobility rate after 48 h,[2]; concentration by mass 0.0015 %,85%
same,Immobility rate after 24 h,"[2]; concentration by mass 0.0015 %, aqueous solution",19%
same,Mortality rate after 72 h,[2]; concentration by mass 0.003 %,63%
same,Immobility rate after 48 h,[2]; concentration by mass 0.003 %,65%
same,Immobility rate after 24 h,"[2]; concentration by mass 0.003 %, aqueous solution",49%
same,LC50 (Probits method),[1],0.010 g × 24 h/m^3
CBr [methyl bromide],LC50 of the comparison fumigant,[4],0.1 g×24 h/m^3
